Source: paper PMC12040169 (PLOS Biology, 2025)

test: in vitro; conditions: human, hela cells, % viability

Row | SMILES | viability at 28.5 h, 10 µM
1 | N#Cc1c(NC(=O)CSc2nc(-c3ccco3)cc(C(F)(F)F)n2)sc2c1CCCC2 [CBK266193] | 87%
2 | CN(C)CCCNc1ccc(-c2nnc(O)c3ccccc23)cc1[N+](=O)[O-] [CBK266200] | 100%
3 | COc1ccccc1NC(=S)NCCc1ccc(S(N)(=O)=O)cc1 [CBK266201] | 95.1%
4 | NC(=O)c1ccc(NC(=O)CSc2nnc(-c3ccncc3)n2-c2ccc(Br)cc2)cc1 [CBK266202] | 103%
5 | O=C(COc1ccc([N+](=O)[O-])cc1)Nc1ccc(CN2CCCCC2)cc1 [CBK266204] | 118%
6 | CCc1ccc(CC)c(S(=O)(=O)NC(CC(=O)O)c2ccccc2)c1 (centres unmarked) [CBK266208] | 102%
7 | O=C(Nc1ccc(I)cc1C(=O)NCCN1CCOCC1)c1ccco1 [CBK266211] | 100%
8 | O=C(Nc1ccc(I)cc1C(=O)N1CCCCC1CCO)c1cccc2ccccc12 (centres unmarked) [CBK266212] | 113%
9 | CCN(CC)CC(=O)Nc1ccccc1OC [CBK266213C] | 113%
10 | O=C(O)CSc1nnc(SCc2cccc3ccccc23)s1 [CBK266215] | 81.4%
11 | NC(=O)C1(N2CCCCC2)CCN(C(=O)CSc2nnc(-c3ccccc3)n2C2CCCCC2)CC1 [CBK266219] | 101%
12 | CC(=O)Nc1ccc(NC(=O)c2ccc(-c3ccc([N+](=O)[O-])cc3)o2)cc1 [CBK266220] | 99.8%
13 | Nc1nc(CSc2nnc(-c3ccncc3)o2)nc(Nc2ccc(F)cc2)n1 [CBK266221] | 116%
14 | O=C(NC(=S)Nc1ccc(OCc2ccccc2)cc1)c1cccnc1 [CBK266224] | 97.8%
15 | CC(=O)c1cc2c(cc1NC(=O)CSc1ccccn1)OCO2 [CBK266225] | 94.2%
16 | CC(Sc1ccc(Br)c2cccc(C(=O)O)c12)C(=O)O (centres unmarked) [CBK266226] | 97.4%
17 | Cc1cc(C(F)F)n2nc(C(=O)NCc3ccccc3F)nc2n1 [CBK266228] | 97.2%
18 | Cn1cc(C(CC(=O)O)C(=O)O)c2ccccc21 (centres unmarked) [CBK266231] | 98.9%
19 | CCc1ccc(Oc2c[nH]nc2-c2ccc(OCc3cnn(-c4ccccc4)c3)cc2O)cc1 [CBK266233] | 91.4%
20 | O=C(CCN1C(=O)c2cccc3cccc(c23)C1=O)Oc1ccc2c(c1)OCO2 [CBK266237] | 106%
21 | CN1CCN(c2ccc(NC(=S)NC(=O)c3cc4ccccc4o3)cc2)CC1 [CBK266240] | 95.5%

Row | SMILES | viability at 28.5 h, 10 µM
22 | COC(=O)c1ccccc1NC(=O)CN(C)S(=O)(=O)c1c(C)cc(C)cc1C [CBK266241] | 110%
23 | COc1ccc(S(=O)(=O)N(C)CC(=O)Nc2cccc(C(F)(F)F)c2)cc1OC [CBK266242] | 95.5%
24 | COc1ccc([N+](=O)[O-])cc1NC(=O)C1(c2ccc(OC)c(OC)c2)CCOCC1 [CBK266243] | 98.2%
25 | CN1CCN(CC(=O)Nc2ccc(Cl)cc2C(=O)c2ccccc2)CC1 [CBK266246] | 91.8%
26 | O=C(C1=C(O)C(=O)N(Cc2ccncc2)C1c1cccc(OCc2ccccc2)c1)c1cccs1 (centres unmarked) [CBK266247] | 102%
27 | COC(=O)c1ccccc1NC(=O)CSc1nnc(-c2sc(N)nc2C)o1 [CBK266250] | 100%
28 | Cc1cc(C(F)F)n2nc(C(=O)Nc3ccc(S(=O)(=O)NC45CC6CC(CC(C6)C4)C5)cc3)nc2n1 [CBK266251] | 96.2%
29 | O=C1c2cccc3cccc(c23)C(=O)N1CCN1CCN(CC(O)COc2ccccc2)CC1 (centres unmarked) [CBK266255] | 97.4%
30 | COc1ccc(NC(=N)Nc2nc(=O)cc(CSc3nc4ccccc4s3)[nH]2)cc1 [CBK266256] | 101%
31 | COC(=O)c1cc(NC(=O)CC2Sc3ccccc3NC2=O)cc(C(=O)OC)c1 (centres unmarked) [CBK266260] | 99.6%
32 | CC(=O)Nc1ccc(S(=O)(=O)Nc2ccc(-c3csc(C)n3)cc2)cc1 [CBK266261] | 85.7%
33 | CC(Oc1ccccc1)c1nnc(SCC(=O)Nc2cc(Cl)c(Cl)cc2Cl)n1C (centres unmarked) [CBK266262] | 108%
34 | NS(=O)(=O)c1ccc(NC(=S)NC(=O)c2ccc(Cl)cc2Cl)cc1 [CBK266265] | 94%
35 | CN(C)S(=O)(=O)c1ccc(-c2nn(-c3ccccc3)cc2/C=C(\C#N)c2nc3ccccc3c(=O)[nH]2)cc1 [CBK266266] | 101%
36 | N#C/C(=C\c1cn(-c2ccccc2)nc1-c1ccc(S(=O)(=O)N2CCCCC2)cc1)c1nc2ccccc2c(=O)[nH]1 [CBK266268] | 101%
37 | Cc1ccc(S(=O)(=O)NCCn2cnc([N+](=O)[O-])n2)cc1 [CBK266270] | 96.3%
38 | Cc1sc(NC(=S)NC(=O)C2CCCCC2)c(C(N)=O)c1C [CBK266273] | 97.3%
39 | O=C(CSCc1c(Cl)cccc1Cl)Nc1ccc(S(=O)(=O)N2CCOCC2)cc1 [CBK266276] | 109%
40 | O=C(CN(c1ccc(I)cc1)S(=O)(=O)c1ccccc1)NCC1CCCO1 (centres unmarked) [CBK266278] | 101%
41 | Cc1ccc2nsnc2c1NC(=O)Cc1cccc2ccccc12 [CBK266279] | 98.8%
42 | COc1ccc(S(=O)(=O)NCCSCc2cccc(Cl)c2)c(Cl)c1Cl [CBK266281] | 97.6%

Row | SMILES | viability at 28.5 h, 10 µM
43 | O=C(Cc1cccc2ccccc12)NC(=S)Nc1ccc(S(=O)(=O)N2CCCCC2)cc1 [CBK266283] | 106%
44 | COc1cc(S(=O)(=O)N2CCN(S(=O)(=O)c3cccc([N+](=O)[O-])c3)CC2)ccc1Cl [CBK266285] | 89.6%
45 | O=C(Cc1cccc2ccccc12)Nc1ccc2oc(-c3ccccc3)nc2c1 [CBK266286] | 96.3%
46 | CCOC(=O)c1cnc(SCc2nc(N)nc(Nc3ccc(C)cc3)n2)nc1N [CBK266292] | 115%
47 | Cc1ccc(OCC(O)Cn2c(=N)n(Cc3ccccc3)c3ccccc32)cc1 (centres unmarked) [CBK266293C] | 91.7%
48 | O=C(CNS(=O)(=O)c1ccc(Br)cc1)NCc1cccnc1 [CBK266295] | 97.2%
49 | Cc1ccc(S(=O)(=O)NC(C)(C)CSc2nncn2N)cc1 [CBK266297] | 103%
50 | Cc1ccc(S(=O)(=O)NCCSc2nnc(N)s2)cc1 [CBK266300] | 97.9%
51 | Cc1cc2oc(C(=O)Nc3sc4c(c3C#N)CCCC4)c(C)c2cc1C [CBK266301] | 103%
52 | Cc1cccc(Nc2[nH]c3cc(C)ccc3c2[N+](=O)[O-])c1 [CBK266303] | 81.9%
53 | Nc1nnc(-c2ccc(Oc3nc(N4CCOCC4)nc(N4CCOCC4)n3)cc2)s1 [CBK266305] | 96.1%
54 | O=S(=O)(NCC(Sc1ccc(F)cc1)c1ccccc1)c1ccc(Cl)cc1 (centres unmarked) [CBK266306] | 96.8%
55 | O=C(O)CCc1c(-c2ccccc2)cc2ccccn12 [CBK266308] | 109%
56 | O=C(O)c1cccc(CSc2nnc(-c3ccncc3)o2)c1 [CBK266310] | 106%
57 | O=C1CC(c2nc3ccccc3n2CCc2ccccc2)CN1c1ccccc1 (centres unmarked) [CBK266311] | 101%
58 | NC(=O)C1CCCN(S(=O)(=O)c2ccc(S(N)(=O)=O)cc2)C1 (centres unmarked) [CBK266312] | 96.2%
59 | O=C(NCC1CCCO1)c1ccc(NC(=O)C2C3C=CC(C3)C2C(=O)O)cc1 (centres unmarked) [CBK266317] | 94.9%
60 | Cc1nnc(SCc2cc(=O)nc(NC(=N)Nc3cccc(Cl)c3)[nH]2)s1 [CBK266318] | 75.5%
61 | CC1CCc2c(sc(NC(=S)NC(=O)c3cc4ccccc4o3)c2C#N)C1 (centres unmarked) [CBK266319] | 101%
62 | Nc1nnc(SCC(=O)N2CCN(C(c3ccccc3)c3ccccc3)CC2)s1 [CBK266320] | 99.2%
63 | COc1ccc(CCN2C(=O)CC(Nc3ccc(N4CCOCC4)cc3)C2=O)cc1OC (centres unmarked) [CBK266322] | 97.7%

Row | SMILES | viability at 28.5 h, 10 µM
64 | O=C(Cc1cccc2ccccc12)Nc1ccccc1C(=O)O [CBK266325] | 100%
65 | CCOc1cc(C#N)cc(I)c1OCC(=O)O [CBK266326] | 96.9%
66 | Cc1[nH]c2ccccc2c1C(=O)CSc1nnc(N)s1 [CBK266328] | 102%
67 | CS(=O)(=O)N(CC(=O)N1CCN(C(c2ccccc2)c2ccccc2)CC1)c1cccc(F)c1 [CBK266330] | 105%
68 | Nc1nnc(SCC(=O)Nc2ccc3c(c2)OCCO3)s1 [CBK266331] | 95.6%
69 | COc1cc(Cl)cc(C2NC(=S)NC(c3ccccc3)=C2C(=O)c2ccccc2)c1OCC(=O)O (centres unmarked) [CBK266332] | 106%
70 | CC1(C)CC(=O)C2=C(C1)Nc1nn(-c3ccccc3)c(O)c1C2c1cccs1 (centres unmarked) [CBK266333] | 94%
71 | O=C(Nc1sc2c(c1C(=O)NCc1cccnc1)CCCC2)c1sc2ccccc2c1Cl [CBK266334] | 95.9%
72 | CN(C)CCSc1nc2cc(Cl)ccc2o1 [CBK266337C] | 96.6%
73 | N#C/C(=C\c1cn(-c2ccccc2)nc1-c1ccc(S(=O)(=O)N2CCOCC2)cc1)c1nc2ccccc2c(=O)[nH]1 [CBK266343] | 104%
74 | Cc1sc(NC(=S)NC(=O)Cc2cccc3ccccc23)c(C(N)=O)c1C [CBK266344] | 91.4%
75 | Cc1ccc(S(=O)(=O)NCCSc2nnc(Nc3ccccc3)s2)cc1 [CBK266345] | 106%
76 | N#C/C(=C\c1cn(-c2ccccc2)nc1-c1cccc(S(=O)(=O)N2CCCCCC2)c1)c1nc2ccccc2c(=O)[nH]1 [CBK266347] | 103%
77 | CCOC(=O)C1=C(c2ccccc2)Nc2ncnn2C1c1cccc(OC)c1OC (centres unmarked) [CBK266353] | 106%
78 | Cc1ccc(C(=O)N2CCN(c3ccc(NC(=O)c4ccc(-c5cccc([N+](=O)[O-])c5)o4)cc3)CC2)cc1 [CBK266355] | 107%
79 | O=C(O)c1[nH]nc2c1COc1ccccc1-2 [CBK266356] | 97.5%
80 | N#C/C(=C\c1cn(-c2ccccc2)nc1-c1cccc(S(=O)(=O)N2CCOCC2)c1)c1nc2ccccc2c(=O)[nH]1 [CBK266357] | 98.1%
81 | Nn1cnnc1SC1CCCCC1NS(=O)(=O)c1ccccc1 (centres unmarked) [CBK266361] | 95.7%
82 | CC(Oc1ccccc1)c1nnc(SCC(=O)Nc2ccc(Br)cc2F)n1C (centres unmarked) [CBK266364] | 101%

same assay, conditions: human, hela cells, % viability, bulk resorufin, single well

Row | SMILES | viability at 28.5 h, 10 µM
83 | O=C1NC(=O)C(CCc2ccccn2)(Cc2cccc(Cl)c2Cl)C(=O)N1c1ccc(Br)cc1 (centres unmarked) [CBK266359] | 94.2%
